Source: ChEMBL document CHEMBL4177750, “Imidazopyrazinones (IPYs): Non-Quinolone Bacterial Topoisomerase Inhibitors Showing Partial Cross-Resistance with Quinolones” (J Med Chem, 2018)
Values after ≈ are worked out from the molar mass of the structure shown.

What follows are molecules tested on Escherichia coli (assay: Antibacterial activity against Escherichia coli K-12 MG1655 after 20 to 22 hrs). Conditions: K-12 substr. MG1655.

Compound | MIC [µg/mL]
O=c1c2nccn2c2cc(F)c(-c3cccnc3)cc2n1C1CC1 | 32 (≈ 99.9 µM)
N[C@H]1CCN(c2cc3c(cc2F)c(=O)n(N)c(=O)n3C2CC2)C1 | 1 (≈ 3.13 µM)
Cn1c(=O)c2nccn2c2/c(=C/c3ccncc3)c3ccccc3c21 | > 64
O=c1c2cncn2c2cc(F)c(-c3ccncc3)cc2n1C1CC1 | > 64
O=c1c2nccn2c2cc(F)c(-c3ccccn3)cc2n1C1CC1 | > 64
O=c1c2ncnn2c2cc(F)c(-c3ccncc3)cc2n1C1CC1 | > 64

Each molecule was assayed on Escherichia coli (assay: Antibacterial activity against tolC-deficient Escherichia coli K-12 MG1655 after 20 to 22 hrs). Conditions: K-12 substr. MG1655.
Type: functional

Compound | MIC [µg/mL]
O=c1c2nccn2c2cc(F)c(-c3cccnc3)cc2n1C1CC1 | < 0.125
N[C@H]1CCN(c2cc3c(cc2F)c(=O)n(N)c(=O)n3C2CC2)C1 | < 0.125
Cn1c(=O)c2nccn2c2/c(=C/c3ccncc3)c3ccccc3c21 | < 0.125
O=c1c2cncn2c2cc(F)c(-c3ccncc3)cc2n1C1CC1 | 0.25 (≈ 0.78 µM)
O=c1c2nccn2c2cc(F)c(-c3ccccn3)cc2n1C1CC1 | 4 (≈ 12.5 µM)
O=c1c2ncnn2c2cc(F)c(-c3ccncc3)cc2n1C1CC1 | < 0.125

What follows are molecules tested on Escherichia coli (assay: Antibacterial activity against hyperpermeable Escherichia coli D22 harboring LpxC mutant after 20 to 22 hrs). Conditions: not given.

Compound | MIC [µg/mL]
O=c1c2nccn2c2cc(F)c(-c3cccnc3)cc2n1C1CC1 | 8 (≈ 25 µM)
N[C@H]1CCN(c2cc3c(cc2F)c(=O)n(N)c(=O)n3C2CC2)C1 | 0.5 (≈ 1.57 µM)
Cn1c(=O)c2nccn2c2/c(=C/c3ccncc3)c3ccccc3c21 | > 64
O=c1c2cncn2c2cc(F)c(-c3ccncc3)cc2n1C1CC1 | 64 (≈ 200 µM)
O=c1c2nccn2c2cc(F)c(-c3ccccn3)cc2n1C1CC1 | > 64
O=c1c2ncnn2c2cc(F)c(-c3ccncc3)cc2n1C1CC1 | 32 (≈ 99.6 µM)

What follows are molecules tested on Escherichia coli (assay: Antibacterial activity against tolC-deficient fluoroquinolones-sensitive Escherichia coli JC7623 clinical isolate harboring wild type DNA gyrase after 20 to 22 hrs). Conditions: not given.

Compound | MIC [µg/mL]
CNc1cc(=O)n(C)c2c1/C(=C/c1ccncc1)c1ccccc1-2 | 1 (≈ 3.17 µM)
Cn1c(=O)c2nccn2c2/c(=C/c3ccncc3)c3ccccc3c21 | 0.016 (≈ 0.049 µM)

Each molecule was assayed on Escherichia coli (assay: Antibacterial activity against tolC-deficient fluoroquinolones-resistant Escherichia coli W4753 clinical isolate harboring DNA gyrase S83L/D87N/ParC S80I/ParE S458A mutant after 20 to 22 hrs). Conditions: not given.

Compound | MIC [µg/mL]
CNc1cc(=O)n(C)c2c1/C(=C/c1ccncc1)c1ccccc1-2 | 2 (≈ 6.34 µM)
Cn1c(=O)c2nccn2c2/c(=C/c3ccncc3)c3ccccc3c21 | 0.25 (≈ 0.766 µM)

The molecules below were run on Pseudomonas aeruginosa (assay: Antibacterial activity against Pseudomonas aeruginosa PAO1 after 20 to 22 hrs). Conditions: not given.
Type: functional

Compound | MIC [µg/mL]
O=c1c2nccn2c2cc(F)c(-c3cccnc3)cc2n1C1CC1 | > 64
N[C@H]1CCN(c2cc3c(cc2F)c(=O)n(N)c(=O)n3C2CC2)C1 | 32 (≈ 100 µM)
Cn1c(=O)c2nccn2c2/c(=C/c3ccncc3)c3ccccc3c21 | > 64
O=c1c2cncn2c2cc(F)c(-c3ccncc3)cc2n1C1CC1 | > 64
O=c1c2nccn2c2cc(F)c(-c3ccccn3)cc2n1C1CC1 | > 64
O=c1c2ncnn2c2cc(F)c(-c3ccncc3)cc2n1C1CC1 | > 64

What follows are molecules tested on Escherichia coli (assay: Antibacterial activity against ESBL producing Escherichia coli ATCC 35218 after 20 to 22 hrs). Conditions: not given.
Type: functional

Compound | MIC [µg/mL]
O=c1c2nccn2c2cc(F)c(-c3cccnc3)cc2n1C1CC1 | 16 (≈ 49.9 µM)
N[C@H]1CCN(c2cc3c(cc2F)c(=O)n(N)c(=O)n3C2CC2)C1 | 1 (≈ 3.13 µM)
Cn1c(=O)c2nccn2c2/c(=C/c3ccncc3)c3ccccc3c21 | > 64
O=c1c2cncn2c2cc(F)c(-c3ccncc3)cc2n1C1CC1 | 64 (≈ 200 µM)
O=c1c2nccn2c2cc(F)c(-c3ccccn3)cc2n1C1CC1 | > 64
O=c1c2ncnn2c2cc(F)c(-c3ccncc3)cc2n1C1CC1 | 32 (≈ 99.6 µM)

The molecules below were run on Pseudomonas aeruginosa (assay: Antibacterial activity against Pseudomonas aeruginosa PAO750 harboring mexAB-oprM/mexCD-oprJ/mexEF-oprN/mexXY/opmH/mexJK/pscC deletion mutant after 20 to 22 hrs). Conditions: not given.
Type: functional

Compound | MIC [µg/mL]
O=c1c2nccn2c2cc(F)c(-c3cccnc3)cc2n1C1CC1 | 4 (≈ 12.5 µM)
N[C@H]1CCN(c2cc3c(cc2F)c(=O)n(N)c(=O)n3C2CC2)C1 | < 0.125
Cn1c(=O)c2nccn2c2/c(=C/c3ccncc3)c3ccccc3c21 | > 64
O=c1c2cncn2c2cc(F)c(-c3ccncc3)cc2n1C1CC1 | 32 (≈ 99.9 µM)
O=c1c2nccn2c2cc(F)c(-c3ccccn3)cc2n1C1CC1 | > 64
O=c1c2ncnn2c2cc(F)c(-c3ccncc3)cc2n1C1CC1 | 32 (≈ 99.6 µM)

What follows are molecules tested on Staphylococcus aureus (assay: Antibacterial activity against methicillin-resistant Staphylococcus aureus ATCC 33592 after 20 to 22 hrs). Conditions: not given.
Type: functional

Compound | MIC [µg/mL]
O=c1c2nccn2c2cc(F)c(-c3cccnc3)cc2n1C1CC1 | 64 (≈ 200 µM)
N[C@H]1CCN(c2cc3c(cc2F)c(=O)n(N)c(=O)n3C2CC2)C1 | 2 (≈ 6.26 µM)
Cn1c(=O)c2nccn2c2/c(=C/c3ccncc3)c3ccccc3c21 | > 64
O=c1c2cncn2c2cc(F)c(-c3ccncc3)cc2n1C1CC1 | 64 (≈ 200 µM)
O=c1c2nccn2c2cc(F)c(-c3ccccn3)cc2n1C1CC1 | > 64
O=c1c2ncnn2c2cc(F)c(-c3ccncc3)cc2n1C1CC1 | 16 (≈ 49.8 µM)
